From the RepoRT retention time repository (doi:10.1016/j.jhazmat.2019.121712)

Experiment: Thermo Scientific Acclaim RSLC 120 C18, 100 × 2.1 mm, 2.2 µm, 30 °C; A: 90% water + 10% methanol + 0.01% formic acid + 5 mM ammonium formate; B: methanol + 0.01% formic acid + 5 mM ammonium formate; gradient (min/%B) 0.1/1 3/39 14/99.9 16/99.9
Details: stereoisomer not certain
In the case of `COC(=O)NC(C(=O)NC(Cc1ccccc1)C(O)CN(Cc1ccc(-c2ccccn2)cc1)NC(=O)C(NC(=O)OC)C(C)(C)C)C(C)(C)C` (stereo not given), the LC retention time is reported as 10.9 min. `CCC(Cc1ccc2c(c1)OCO2)NC` (stereo not given) gave an LC retention time of 4.66 min. `C=CCN1CCC23c4c5ccc(O)c4OC2C(O)C=CC3C1C5` (stereo not given) showed an LC retention time of 3.39 min. In the case of `CCCCNc1cc(C(=O)O)cc(S(N)(=O)=O)c1Oc1ccccc1`, the LC retention time is reported as 7.83 min. Work on `CC1=C(C)S(=O)(=O)CCS1(=O)=O` yielded an LC retention time of 3.73 min. Work on `CN1C2CCC1CC(OC(c1ccccc1)c1ccccc1)C2` (stereo not given) yielded an LC retention time of 7.97 min. `CCCc1nn(C)c2c(=S)nc(-c3cc(S(=O)(=O)N4CCN(CCO)CC4)ccc3OCC)[nH]c12` gave an LC retention time of 10.5 min. Work on `CCCCCn1cc(C(=O)Cc2ccccc2OC)c2ccccc21` yielded an LC retention time of 11.8 min. With `O=C(O)c1ccccc1C(=O)Nc1cccc2ccccc12` the LC retention time was 6.75 min. `CN(Cc1cnc2nc(N)nc(N)c2n1)c1ccc(C(=O)NC(CCC(=O)O)C(=O)O)cc1` (stereo not given) showed an LC retention time of 3.96 min. `CCS(=O)(=O)CCSP(=O)(OC)OC` gave an LC retention time of 4.15 min. In the case of `c1ccc2c(CC3=NCCN3)cccc2c1`, the LC retention time is reported as 4.84 min. `CNc1nc(NC(C)C)nc(SC)n1` showed an LC retention time of 8.17 min. `CC(O)CCn1cc(C(=O)c2cccc3ccccc23)c2ccccc21` (stereo not given) gave an LC retention time of 9.91 min. In the case of `c1cc2c(c(NC3=NCCN3)c1)CCC2`, the LC retention time is reported as 4.76 min. For `CCC(CC)Nc1c([N+](=O)[O-])cc(C)c(C)c1[N+](=O)[O-]`, the LC retention time was 12.8 min. `CCOC(=O)c1ccc(N)cc1` gave an LC retention time of 6.27 min. `O=C(O)C(c1ccccc1)C1CCCCN1` (stereo not given) showed an LC retention time of 4.61 min. In the case of `CCOP(=S)(OCC)Oc1cc(C)nc(C(C)C)n1`, the LC retention time is reported as 11 min. For `N#Cc1ccc(C(c2ccc(C#N)cc2)n2cncn2)cc1`, the LC retention time was 6.33 min. Compound `O=C(NC1CCN(CCc2c[nH]c3ccccc23)CC1)c1ccccc1` has an LC retention time of 5.37 min. In the case of `CCC(C)(C)C(=O)OC1CC(C)C=C2C=CC(C)C(CCC3CC(O)CC(=O)O3)C21` (stereo not given), the LC retention time is reported as 12.6 min. In the case of `NC(=O)c1cccnc1`, the LC retention time is reported as 2.73 min. Work on `COC1C=COC2(C)Oc3c(C)c(O)c4c(O)c(c5c(nc6cc(C)ccn65)c4c3C2=O)NC(=O)C(C)=CC=CC(C)C(O)C(C)C(O)C(C)C(OC(C)=O)C1C` (stereo not given) yielded an LC retention time of 10.1 min. Work on `CCCCCn1cc(C(=O)c2ccc(C)c3ccccc23)c2ccccc21` yielded an LC retention time of 12.9 min. Work on `CN(C)CCC=C1c2ccccc2COc2ccccc21` yielded an LC retention time of 7.01 min. `CCOP(=S)(OCC)SCS(=O)C(C)(C)C` (stereo not given) gave an LC retention time of 9 min. With `O=C(Nc1ccc(C(=O)O)c(O)c1)c1ccccc1` the LC retention time was 5.47 min. `CCCc1nc2c(C)cc(-c3nc4ccccc4n3C)cc2n1Cc1ccc(-c2ccccc2C(=O)O)cc1` gave an LC retention time of 10.3 min. For `COc1ccc(C(=O)c2cn(CCCCC(=O)O)c3ccccc23)cc1`, the LC retention time was 8.81 min. With `CCOc1ccccc1C(N)=O` the LC retention time was 5.68 min. Compound `CCN(CC)CCOCCOC(=O)C(CC)(CC)c1ccccc1` has an LC retention time of 8.04 min. With `Nc1ncnc2c1ncn2C1OC(CO)C(O)C1O` (stereo not given) the LC retention time was 3.14 min. Compound `C=CCCCn1cc(C(=O)c2cccc3ccccc23)c2ccccc21` has an LC retention time of 12 min. Compound `NC(=O)c1ncn(C2OC(CO)C(O)C2O)n1` (stereo not given) has an LC retention time of 1.36 min. Compound `COc1cc2nc(N3CCN(C(=O)c4ccco4)CC3)nc(N)c2cc1OC` has an LC retention time of 5.34 min. With `CCCOc1ccc(S(=O)(=O)N2CCN(CC)CC2)cc1-c1nc(=S)c2c([nH]1)c(CCC)nn2C` the LC retention time was 10.5 min. For `Nc1c2c(nc3ccccc13)CCCC2`, the LC retention time was 4.77 min. `CCCN(CC)CC1COC2(CCC(C(C)(C)C)CC2)O1` (stereo not given) showed an LC retention time of 9.32 min. Work on `Cc1cc(C)cc(C(=O)N(NC(=O)c2ccc3c(c2C)CCCO3)C(C)(C)C)c1` yielded an LC retention time of 9.93 min. For `Cc1cnc(NC(=O)C2=C(O)c3ccccc3S(=O)(=O)N2C)s1`, the LC retention time was 7.09 min. `CCN(CC)C(=O)Nc1ccc(OCC(O)CNC(C)(C)C)c(C(C)=O)c1` (stereo not given) showed an LC retention time of 5.24 min. `CCC(NC)C(=O)c1ccccc1` (stereo not given) gave an LC retention time of 4.26 min. `Oc1ccc(C=Cc2cc(O)cc(O)c2)cc1` showed an LC retention time of 5.93 min. Work on `CC(CN1c2ccccc2Sc2cccnc21)N(C)C` (stereo not given) yielded an LC retention time of 6.47 min. Compound `CSc1nc(N=[N+]=[N-])nc(NC(C)C)n1` has an LC retention time of 9.71 min. Compound `CCN(CCCCOC(=O)c1ccc(OC)c(OC)c1)C(C)Cc1ccc(OC)cc1` (stereo not given) has an LC retention time of 6.79 min. `CCc1cc2cc(OC)c(OC)cc2c(Cc2ccccc2)n1` showed an LC retention time of 8.29 min. With `CCN(CC)C(=O)C1(c2ccccc2)CC1CN` (stereo not given) the LC retention time was 5.73 min. For `COC(=O)C(NC(=O)c1nn(CC2CCCCC2)c2ccccc12)C(C)(C)C` (stereo not given), the LC retention time was 12.9 min. Work on `CN1CCCN=C1COC(=O)C(O)(c1ccccc1)C1CCCCC1` (stereo not given) yielded an LC retention time of 7.98 min. In the case of `CNC(C)C(=O)c1ccc2c(c1)OCO2` (stereo not given), the LC retention time is reported as 3.81 min. `CCCCCn1cc(C(=O)CC(C)(C)C(C)(C)O)c2ccccc21` gave an LC retention time of 11.6 min. In the case of `CCCC(NC)C(=O)c1ccccc1` (stereo not given), the LC retention time is reported as 4.89 min. For `CC(C)=CC1C(C(=O)OCc2coc(Cc3ccccc3)c2)C1(C)C` (stereo not given), the LC retention time was 13.6 min.
